# Tests used:
# [1] = test system: barnyard grass; experiment: Test Example 4: herbicidal effect by soil treatment (Table 19, symbol H); format: in vivo, barnyard grass (Echinochloa crus-galli)
# Method in brief: (§1)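 In this soil treatment, the formulated compound reached the seeds only through the soil: seeds were buried about 1.5 cm deep in sterilized diluvial soil, then the diluted emulsion was sprayed over the surface. After three weeks at 25° C. to 30° C. in a greenhouse, effects were graded on criteria from an earlier test.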
# [2] = test system: redroot pigweed; experiment: Test Example 5: herbicidal effect by foliage application, plastic box (Table 20, symbol N); format: in vivo, redroot pigweed (Amaranthus retroflexus); settings: foliage application
# Method in brief: (§2)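 Plants were sown into sterilized diluvial soil under about 1.5 cm cover and kept in a greenhouse at 25° C. to 30° C. Fourteen days on, foliage received an even spray of the diluted emulsion. Herbicidal or crop effect was judged three weeks afterwards.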
# [3] = test system: barnyard grass; experiment: Test Example 5: herbicidal effect by foliage application, plastic box (Table 20, symbol H); format: in vivo, barnyard grass (Echinochloa crus-galli); settings: foliage application
# Method in brief: as §2
# [4] = test system: chickweed; experiment: Test Example 4: herbicidal effect by soil treatment (Table 19, symbol P); format: in vivo, common chickweed (Stellaria media)
# Method in brief: as §1
# [5] = test system: wild oat; experiment: Test Example 4: herbicidal effect by soil treatment (Table 19, symbol I); format: in vivo, wild oat (Avena fatua)
# Method in brief: as §1
# [6] = test system: windgrass; experiment: Test Example 5: herbicidal effect by foliage application, plastic box (Table 20, symbol L); format: in vivo, windgrass (Apera spica-venti); settings: foliage application
# Method in brief: as §2
# [7] = test system: southern crabgrass; experiment: Test Example 4: herbicidal effect by soil treatment (Table 19, symbol F); format: in vivo, southern crabgrass (Digitaria ciliaris)
# Method in brief: as §1
# [8] = test system: chickweed; experiment: Test Example 5: herbicidal effect by foliage application, plastic box (Table 20, symbol P); format: in vivo, common chickweed (Stellaria media); settings: foliage application
# Method in brief: as §2
# [9] = test system: wild oat; experiment: Test Example 5: herbicidal effect by foliage application, plastic box (Table 20, symbol I); format: in vivo, wild oat (Avena fatua); settings: foliage application
# Method in brief: as §2
# [10] = test system: Italian ryegrass; experiment: Test Example 5: herbicidal effect by foliage application, plastic box (Table 20, symbol K); format: in vivo, Italian ryegrass (Lolium multiflorum); settings: foliage application
# Method in brief: as §2
# [11] = test system: barnyard grass; experiment: Test Example 3: herbicidal effect by foliage application, Wagner pot (Table 18, symbol H); format: in vivo, barnyard grass (Echinochloa crus-galli)
# Method in brief: (§3)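 Plants were sown in alluvial soil held under 0.1–0.5 cm standing water and grown 14 days in a greenhouse at 25–30 °C. An emulsifiable formulation, water-diluted to the set dose, was then sprayed onto the foliage, and effects were scored three weeks later using previously defined criteria.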
# [12] = test system: windgrass; experiment: Test Example 4: herbicidal effect by soil treatment (Table 19, symbol L); format: in vivo, windgrass (Apera spica-venti)
# Method in brief: as §1
# [13] = test system: persian speedwell; experiment: Test Example 5: herbicidal effect by foliage application, plastic box (Table 20, symbol R); format: in vivo, Persian speedwell (Veronica persica); settings: foliage application
# Method in brief: as §2
# [14] = test system: lambsquarters; experiment: Test Example 4: herbicidal effect by soil treatment (Table 19, symbol O); format: in vivo, lambsquarters (Chenopodium album)
# Method in brief: as §1
# [15] = test system: rice flat sedge; experiment: Test Example 3: herbicidal effect by foliage application, Wagner pot (Table 18, symbol E); format: in vivo, rice flat sedge (Cyperus iria)
# Method in brief: as §3
# [16] = test system: Italian ryegrass; experiment: Test Example 4: herbicidal effect by soil treatment (Table 19, symbol K); format: in vivo, Italian ryegrass (Lolium multiflorum)
# Method in brief: as §1
# [17] = test system: velvetleaf; experiment: Test Example 5: herbicidal effect by foliage application, plastic box (Table 20, symbol M); format: in vivo, velvetleaf (Abutilon theophrasti); settings: foliage application
# Method in brief: as §2
# [18] = test system: velvetleaf; experiment: Test Example 4: herbicidal effect by soil treatment (Table 19, symbol M); format: in vivo, velvetleaf (Abutilon theophrasti)
# Method in brief: as §1
# [19] = test system: persian speedwell; experiment: Test Example 4: herbicidal effect by soil treatment (Table 19, symbol R); format: in vivo, Persian speedwell (Veronica persica)
# Method in brief: as §1
# [20] = test system: green foxtail; experiment: Test Example 4: herbicidal effect by soil treatment (Table 19, symbol G); format: in vivo, green foxtail (Setaria viridis)
# Method in brief: as §1
# [21] = test system: southern crabgrass; experiment: Test Example 5: herbicidal effect by foliage application, plastic box (Table 20, symbol F); format: in vivo, southern crabgrass (Digitaria ciliaris); settings: foliage application
# Method in brief: as §2
# [22] = test system: blackgrass; experiment: Test Example 4: herbicidal effect by soil treatment (Table 19, symbol J); format: in vivo, blackgrass (Alopecurus myosuroides)
# Method in brief: as §1
# [23] = test system: lambsquarters; experiment: Test Example 5: herbicidal effect by foliage application, plastic box (Table 20, symbol O); format: in vivo, lambsquarters (Chenopodium album); settings: foliage application
# Method in brief: as §2
# [24] = test system: redroot pigweed; experiment: Test Example 4: herbicidal effect by soil treatment (Table 19, symbol N); format: in vivo, redroot pigweed (Amaranthus retroflexus)
# Method in brief: as §1
# [25] = test system: false cleavers; experiment: Test Example 5: herbicidal effect by foliage application, plastic box (Table 20, symbol Q); format: in vivo, false cleavers (Galium spurium); settings: foliage application
# Method in brief: as §2
# [26] = test system: blackgrass; experiment: Test Example 5: herbicidal effect by foliage application, plastic box (Table 20, symbol J); format: in vivo, blackgrass (Alopecurus myosuroides); settings: foliage application
# Method in brief: as §2
# [27] = test system: green foxtail; experiment: Test Example 5: herbicidal effect by foliage application, plastic box (Table 20, symbol G); format: in vivo, green foxtail (Setaria viridis); settings: foliage application
# Method in brief: as §2
# [28] = test system: Chinese sprangletop; experiment: Test Example 3: herbicidal effect by foliage application, Wagner pot (Table 18, symbol D); format: in vivo, chinese sprangletop (Leptochloa chinensis)
# Method in brief: as §3
# [29] = AAH 80 g/ha, three weeks after application
# [30] = 320 g/ha, evaluated three weeks after application
compound,measurement,setting,value
CCCC(=O)Oc1c(OC)nn(C)c(=O)c1-c1c(-c2ccc(OC)c(OC)c2)sc2ccccc12 [1-183],"H: barnyard grass, herbicidal effect rating",[1]; AAH 80 g/ha,0 (Herbicidal rate of 5% or less (almost no effect))
same,"N: redroot pigweed, herbicidal effect",[2]; [29],3 (Herbicidal rate of 40% or more and less than 70%)
same,"H: barnyard grass, herbicidal effect",[3]; [29],4 (Herbicidal rate of 70% or more and less than 90%)
same,"P: chickweed, herbicidal effect rating",[4]; AAH 80 g/ha,3 (Herbicidal rate of 40% or more and less than 70%)
same,"I: wild oat, herbicidal effect rating",[5]; AAH 80 g/ha,0 (Herbicidal rate of 5% or less (almost no effect))
same,"L: windgrass, herbicidal effect",[6]; [29],0 (Herbicidal rate of 5% or less (almost no effect))
same,"F: southern crabgrass, herbicidal effect rating",[7]; AAH 80 g/ha,0 (Herbicidal rate of 5% or less (almost no effect))
same,"P: chickweed, herbicidal effect",[8]; [29],4 (Herbicidal rate of 70% or more and less than 90%)
same,"I: wild oat, herbicidal effect",[9]; [29],0 (Herbicidal rate of 5% or less (almost no effect))
same,"K: Italian ryegrass, herbicidal effect",[10]; [29],1 (Herbicidal rate of 5% or more and less than 20%)
same,"herbicidal effect on H (barnyard grass), rating 0-5",[11]; 80 g/ha,3 (Herbicidal rate of 40% or more and less than 70%)
same,"L: windgrass, herbicidal effect rating",[12]; AAH 80 g/ha,0 (Herbicidal rate of 5% or less (almost no effect))
same,"R: persian speedwell, herbicidal effect",[13]; [29],5 (Herbicidal rate of 90% or more (almost completely withered))
same,"O: lambsquarters, herbicidal effect rating",[14]; AAH 80 g/ha,0 (Herbicidal rate of 5% or less (almost no effect))
same,"herbicidal effect on E (rice flat sedge), rating 0-5",[15]; 80 g/ha,0 (Herbicidal rate of 5% or less (almost no effect))
same,"K: Italian ryegrass, herbicidal effect rating",[16]; AAH 80 g/ha,0 (Herbicidal rate of 5% or less (almost no effect))
same,"M: velvetleaf, herbicidal effect",[17]; [29],1 (Herbicidal rate of 5% or more and less than 20%)
same,"M: velvetleaf, herbicidal effect rating",[18]; AAH 80 g/ha,0 (Herbicidal rate of 5% or less (almost no effect))
same,"R: persian speedwell, herbicidal effect rating",[19]; AAH 80 g/ha,4 (Herbicidal rate of 70% or more and less than 90%)
same,"G: green foxtail, herbicidal effect rating",[20]; AAH 80 g/ha,0 (Herbicidal rate of 5% or less (almost no effect))
same,"F: southern crabgrass, herbicidal effect",[21]; [29],1 (Herbicidal rate of 5% or more and less than 20%)
same,"J: blackgrass, herbicidal effect rating",[22]; AAH 80 g/ha,0 (Herbicidal rate of 5% or less (almost no effect))
same,"O: lambsquarters, herbicidal effect",[23]; [29],3 (Herbicidal rate of 40% or more and less than 70%)
same,"N: redroot pigweed, herbicidal effect rating",[24]; AAH 80 g/ha,0 (Herbicidal rate of 5% or less (almost no effect))
same,"Q: false cleavers, herbicidal effect",[25]; [29],2 (Herbicidal rate of 20% or more and less than 40%)
same,"J: blackgrass, herbicidal effect",[26]; [29],0 (Herbicidal rate of 5% or less (almost no effect))
same,"G: green foxtail, herbicidal effect",[27]; [29],4 (Herbicidal rate of 70% or more and less than 90%)
same,"herbicidal effect on D (Chinese sprangletop), rating 0-5",[28]; 80 g/ha,2 (Herbicidal rate of 20% or more and less than 40%)
Cc1nn(C)c(=O)c(-c2c(-c3ccc4c(c3)OCO4)sc3ccc(F)cc23)c1O [2-090],"herbicidal effect rating, H: barnyard grass",[1]; 320 g/ha,2 (Herbicidal rate of 20% or more and less than 40%)
same,herbicidal effect on N: redroot pigweed,[2]; [30],5 (Herbicidal rate of 90% or more (almost completely withered))
same,herbicidal effect on H: barnyard grass,[3]; [30],5 (Herbicidal rate of 90% or more (almost completely withered))
same,"herbicidal effect rating, P: chickweed",[4]; 320 g/ha,4 (Herbicidal rate of 70% or more and less than 90%)
same,"herbicidal effect rating, I: wild oat",[5]; 320 g/ha,0 (Herbicidal rate of 5% or less (almost no effect))
same,herbicidal effect on L: windgrass,[6]; [30],5 (Herbicidal rate of 90% or more (almost completely withered))
same,"herbicidal effect rating, F: southern crabgrass",[7]; 320 g/ha,2 (Herbicidal rate of 20% or more and less than 40%)
same,herbicidal effect on P: chickweed,[8]; [30],5 (Herbicidal rate of 90% or more (almost completely withered))
same,herbicidal effect on I: wild oat,[9]; [30],3 (Herbicidal rate of 40% or more and less than 70%)
same,herbicidal effect on K: Italian ryegrass,[10]; [30],5 (Herbicidal rate of 90% or more (almost completely withered))
same,"herbicidal effect on H (barnyard grass), rating 0-5",[11]; 320 g/ha,5 (Herbicidal rate of 90% or more (almost completely withered))
same,"herbicidal effect rating, L: windgrass",[12]; 320 g/ha,0 (Herbicidal rate of 5% or less (almost no effect))
same,herbicidal effect on R: persian speedwell,[13]; [30],5 (Herbicidal rate of 90% or more (almost completely withered))
same,"herbicidal effect rating, O: lambsquarters",[14]; 320 g/ha,5 (Herbicidal rate of 90% or more (almost completely withered))
same,"herbicidal effect on E (rice flat sedge), rating 0-5",[15]; 320 g/ha,5 (Herbicidal rate of 90% or more (almost completely withered))
same,"herbicidal effect rating, K: Italian ryegrass",[16]; 320 g/ha,4 (Herbicidal rate of 70% or more and less than 90%)
same,herbicidal effect on M: velvetleaf,[17]; [30],5 (Herbicidal rate of 90% or more (almost completely withered))
same,"herbicidal effect rating, M: velvetleaf",[18]; 320 g/ha,5 (Herbicidal rate of 90% or more (almost completely withered))
same,"herbicidal effect rating, R: persian speedwell",[19]; 320 g/ha,5 (Herbicidal rate of 90% or more (almost completely withered))
same,"herbicidal effect rating, G: green foxtail",[20]; 320 g/ha,3 (Herbicidal rate of 40% or more and less than 70%)
same,herbicidal effect on F: southern crabgrass,[21]; [30],4 (Herbicidal rate of 70% or more and less than 90%)
same,"herbicidal effect rating, J: blackgrass",[22]; 320 g/ha,2 (Herbicidal rate of 20% or more and less than 40%)
same,herbicidal effect on O: lambsquarters,[23]; [30],5 (Herbicidal rate of 90% or more (almost completely withered))
same,"herbicidal effect rating, N: redroot pigweed",[24]; 320 g/ha,5 (Herbicidal rate of 90% or more (almost completely withered))
same,herbicidal effect on Q: false cleavers,[25]; [30],4 (Herbicidal rate of 70% or more and less than 90%)
same,herbicidal effect on J: blackgrass,[26]; [30],4 (Herbicidal rate of 70% or more and less than 90%)
same,herbicidal effect on G: green foxtail,[27]; [30],5 (Herbicidal rate of 90% or more (almost completely withered))
same,"herbicidal effect on D (Chinese sprangletop), rating 0-5",[28]; 320 g/ha,2 (Herbicidal rate of 20% or more and less than 40%)

# From patent US20230085307A1, “PYRIDAZINONE COMPOUND AND HERBICIDE” (NISSAN CHEMICAL CORPORATION, priority 2019, published 2023)
